What was measured:
[1] = tested on: spleen; assay: In vivo Fluc activity of FlucmRNA-loaded LNP by in vivo imaging, spleen; details: Balb/c mice, 6 hours; for Fluc Activity in spleen: FlucmRNA-loaded LNP i.v. 0.1 mg mRNA/kg; for Fluc activity in the spleen, compared with CL4F6: 0.1 mg mRNA/kg, versus LNP comprising CL4F6 (Tables 5 and 6)
Experimental: (§1) Then, each prepared FlucmRNA-loaded lipid nanoparticles were administered to Balb/c mice (Charles River Laboratories Japan, Inc., 7 weeks old, female) and in vivo gene expression activity was examined. Specifically, each FlucmRNA-loaded lipid nanoparticles were intravenously administered to Balb/c mice at 0.1 mg mRNA/kg, and Fluc activities in the liver and spleen at 6 hours later were measured. Fluc activity was measured by in vivo imaging system (Perkin Elmer, IVIS200) after administration of VivoGlo Luciferin, In Vivo Grade (Promega, P1041) dissolved with PBS to 15 mg/mL, via tail vein at a dose of 1.5 mg per mouse. The unit of Fluc activity is the emission intensity per unit area (Avg Radiance [p/s/cm2/sr]) at the maximum emission wavelength of about 560 nm. The results of measurement of the Fluc activity (Avg Radiance [p/s/cm2/sr]) in the liver and spleen of mice administered each FlucmRNA-loaded lipid nanoparticles are shown in Tables 5-7.

[2] = tested on: F7; assay: In vivo F7 knockdown, plasma F7 enzyme activity (BIOPHEN FVII), Balb/c mice; details: for F7 enzyme activity (Ratio using MC3 as 1) / F7 enzyme activity (%): i.v. 0.025 mg siRNA/kg, plasma at 24 hours; for F7 enzyme activity (Ratio using MC3 as 1): relative plasma F7 activity of MC3 LNP as 1; for F7 enzyme activity (%): untreated mice as 100%
Experimental: Then, each prepared F7siRNA-loaded lipid nanoparticles were administered to Balb/c mice (Charles River Laboratories Japan, Inc., 5 weeks old, female) and in vivo F7 knockdown activity was examined. Specifically, BALB/c mice were intravenously administered F7siRNA-loaded lipid nanoparticles comprising the lipids described in Table 9 at 0.025 mg siRNA/kg and F7siRNA-loaded lipid nanoparticles comprising the lipids described in Tables 10 and 11 at 0.025 mg siRNA/kg, and the plasma F7 enzyme activity at 24 hours later was measured using BIOPHEN FVII (Biophen, A221304). Relative plasma F7 enzyme activity (%) of mice administered each F7siRNA-loaded lipid nanoparticles was calculated using plasma F7 enzyme activity of untreated mice as 100%. Furthermore, the ratio was calculated using the relative plasma F7 enzyme activity (%) of mice administered MC3-comprising F7siRNA-loaded lipid nanoparticles as 1. The results of measurement of CL4F6 derivative nanoparticles are shown in Tables 9 and 10, and results of measurement of CL15F6 derivative nanoparticles in Table 11.

[3] = siRNA/mRNA encapsulation rate by Ribogreen reagent (section IV); format: physicochemical; details: for % siRNA encapsulation: F7siRNA-loaded LNP, 50:10:38.5:1.5, N/P ratio 6; for % mRNA encapsulation: FlucmRNA-loaded LNP, 50:10:38.5:1.5
Experimental: The encapsulation rates of siRNA and mRNA of lipid nanoparticles were measured with Ribogreen reagent. A solution diluted with TE buffer solution was arranged so that lipid nanoparticle concentration as nucleic acid concentration to be 8 μg/mL, as a solution for measuring nanoparticle surface nucleic acid concentration. In addition, a solution for measuring total nucleic acid concentration was arranged so that lipid nanoparticle concentration as nucleic acid concentration to be 1.2 μg/mL, which is 1% (w/w) concentration of X-triton100, by adding X-triton100. For 100 μL of each solution, 100 μL of Ribogreen (registered trademark) reagent (Quant-iT™ RiboGreen™ RNA Reagent, manufactured by Thermofisher Scientific) was mixed well in the wells of 96-well microplate (black, made of polystyrene, flat bottom, manufactured by Corning), and the fluorescence intensity at an excitation wavelength of 485 nm and a measurement wavelength of 528 nm was measured with a microplate reader. Nucleic acid concentration was calculated by calibration curve created by measuring the fluorescence intensity of nucleic acid solution containing 1% X-triton100 (nucleic acid concentration: 0-2.5 μg/mL) as same as aforementioned. Nucleic acid encapsulation rate of each lipid nanoparticle was calculated by the following formula: Encapsulation rate %=(nucleic acid concentration in solution for measuring total nucleic acid concentration (μg/mL)−nucleic acid concentration in solution for measuring nanoparticle surface nucleic acid concentration (μg/mL))/nucleic acid concentration in solution for measuring total nucleic acid concentration (μg/mL)×100. <Results>
The encapsulation rate of mRNA of lipid nanoparticles was measured using Ribogreen (manufactured by life technologies).

[4] = Storage stability of FlucmRNA-loaded LNP at −80, 5, 25 and 40° C.; format: physicochemical; details: for period for which quality remained good, −80° C.: maximum storage period 1 week; for period for which quality remained good, 5° C. / period for which quality remained good, 25° C. / period for which quality remained good, 40° C. (weeks): maximum storage period 5 weeks
Experimental: Lipid nanoparticles were allowed to stand at each temperature of −80° C., 5° C., 25° C., and 40° C., and after keeping for each period of time, average particle size, PDI, and nucleic acid encapsulation rate were measured. Lipid nanoparticles which satisfy following all three conditions were defined that the quality was remained well: the average particle size is maintained within +/−20 nm based on the date of LNP preparation; PDI remains high uniformity with a value of 0.2 or less; and the nucleic acid encapsulation rate is also maintained at 80% or more. As a result of measuring average particle size, PDI, and nucleic acid encapsulation rate after each FlucmRNA-loaded lipid nanoparticle was allowed to stand at −80° C., 5° C., 25° C., and 40° C. respectively and kept for each period of time, periods of time defined as the quality of the lipid nanoparticles was remained well are shown in Tables 13 and 14. The lipid nanoparticles which remain in good quality with standing at 5° C. for one week or more can be evaluated as having excellent stability.

[5] = tested on: liver; assay: In vivo Fluc activity of FlucmRNA-loaded LNP by in vivo imaging, liver; details: Balb/c mice, 6 hours; for Fluc Activity in liver: FlucmRNA-loaded LNP i.v. 0.1 mg mRNA/kg
Experimental: as §1

[6] = Average particle size (ζ-Average) and PDI by dynamic light scattering (Zetasizer Nano ZSP); format: physicochemical
Experimental: The average particle size (ζ-Average) and PDI in PBS(−) of lipid nanoparticles were measured using “Zetasizer Nano ZSP”, an analyzer utilizing dynamic light scattering (manufactured by Malvern).
Measurement of average particle size and PDI of the lipid nanoparticles were carried out with the same method as the measurement of average particle size of mRNA-LNP.
The average particle size (ζ-Average) and PDI in PBS (−) of lipid nanoparticles were measured using “Zetasizer Nano ZSP”, an analyzer utilizing dynamic light scattering (manufactured by Malvern).

[7] = F7siRNA-loaded LNP, 50:10:38.5:1.5, N/P ratio 6
[8] = FlucmRNA-loaded LNP, 50:10:38.5:1.5
[9] = FlucmRNA-loaded LNP, lipid:DSPC:cholesterol:DMG-PEG2K 50:10:38.5:1.5

Row | % siRNA encapsulation [3] | % mRNA encapsulation [3] | period for which quality remained good, −80° C. [4] | period for which quality remained good, 5° C. [4] | period for which quality remained good, 25° C. [4] | period for which quality remained good, 40° C. (weeks) [4] | PDI [6, 7] | ζ-Average (nm) [6, 7] | PDI [6, 8] | ζ-Average (nm) [6, 9] | SMILES | Fluc Activity in spleen [1] | knockdown activity, compared with MC3 ([2]; F7siRNA-loaded LNP, versus LNP comprising MC3) | F7 enzyme activity (Ratio using MC3 as 1) [2] | Fluc activity in the liver, compared with CL15F6 ([5]; 0.1 mg mRNA/kg, versus LNP comprising CL15F6 (Table 7)) | Fluc Activity in liver [5] | Fluc activity in the spleen, compared with CL4F6 [1] | F7 enzyme activity (%) [2] | Fluc activity in the liver, compared with CL4F6 ([5]; 0.1 mg mRNA/kg, versus LNP comprising CL4F6 (Tables 5 and 6)) | quality at production (storage stability criteria) ([4]; criteria: PDI 0.2 or less, encapsulation 80% or more)
1 | 100.3% | 99.8% | 1 week | 5 weeks | 5 weeks | 5 weeks | 0.017 | 109.6 nm | 0.010 | 108.90 nm | CCCCCCCCCC(CCCCC)C(=O)OCCCCCCC(O)(CCCCCCOC(=O)C(CCCCC)CCCCCCCCC)CCCCOC(=O)C1CCN(C)CC1 (stereo not shown) [CL15F 11-5] | 5.01E+06 Avg Radiance [p/s/cm2/sr] | higher knockdown activity | 0.78 | higher Fluc activity | 9.38E+06 Avg Radiance [p/s/cm2/sr] | – | – | – | –
2 | 100.1% | 99.0% | 1 week | 5 weeks | 5 weeks | 1 week weeks | 0.011 | 94.55 nm | 0.015 | 84.57 nm | CCCCCCCCCCC(CCCC)C(=O)OCCCCCCC(O)(CCCCCCOC(=O)C(CCCC)CCCCCCCCCC)CCCCN(CCC)CCC (stereo not shown) [CL4F 12-4] | 3.19E+06 Avg Radiance [p/s/cm2/sr] | – | – | – | 7.70E+07 Avg Radiance [p/s/cm2/sr] | higher Fluc activity | 5% | – | –
3 | 99.0% | 94.0% | 0 week | 0 weeks | 0 weeks | 0 weeks | 0.088 | 122.5 nm | 0.182 | 187.70 nm | CCCCCCCCCCCCCCC(C)C(=O)OCCCCCCC(O)(CCCCCCOC(=O)C(C)CCCCCCCCCCCCCC)CCCCOC(=O)C1CCN(C)CC1 (stereo not shown) [CL15F 16-1] | 1.27E+06 Avg Radiance [p/s/cm2/sr] | – | 1.37 | – | 2.18E+05 Avg Radiance [p/s/cm2/sr] | – | – | – | –
4 | 100.0% | 99.4% | 1 week | 5 weeks | 5 weeks | 1 week weeks | 0.010 | 99.72 nm | 0.022 | 88.78 nm | CCCCCCC(CCCCCC)C(=O)OCCCCCCC(O)(CCCCCCOC(=O)C(CCCCCC)CCCCCC)CCCCN(CCC)CCC [CL4F 8-6] | 9.58E+06 Avg Radiance [p/s/cm2/sr] | – | – | – | 1.80E+08 Avg Radiance [p/s/cm2/sr] | higher Fluc activity | 3% | higher Fluc activity | –
5 | 56.9% | 41.4% | – | – | – | – | 0.298 | 274.50 nm | 0.069 | 218.20 nm | CCCCC(CC)C(=O)OCCCCCCC(O)(CCCCCCOC(=O)C(CC)CCCC)CCCCN(CCC)CCC (stereo not shown) [CL4F 6-2] | 1.24E+05 Avg Radiance [p/s/cm2/sr] | – | – | – | 1.34E+03 Avg Radiance [p/s/cm2/sr] | – | 54.8% | – | Does not meet the criteria for “good” at production

— patent US12458605B2, “Lipid nanoparticle” (National University Corporation Hokkaido University, priority 2020, dated 2025)
